What was measured:
D(4) dopamine receptor = biological target: T1, D(4) dopamine receptor (Homo sapiens, UniProt P21917); assay: Displacement of [3H]spiperone from human D4.4 receptor stably expressed in CHO cell membranes by competitive binding assay
T1 sequence (P21917 whole entry): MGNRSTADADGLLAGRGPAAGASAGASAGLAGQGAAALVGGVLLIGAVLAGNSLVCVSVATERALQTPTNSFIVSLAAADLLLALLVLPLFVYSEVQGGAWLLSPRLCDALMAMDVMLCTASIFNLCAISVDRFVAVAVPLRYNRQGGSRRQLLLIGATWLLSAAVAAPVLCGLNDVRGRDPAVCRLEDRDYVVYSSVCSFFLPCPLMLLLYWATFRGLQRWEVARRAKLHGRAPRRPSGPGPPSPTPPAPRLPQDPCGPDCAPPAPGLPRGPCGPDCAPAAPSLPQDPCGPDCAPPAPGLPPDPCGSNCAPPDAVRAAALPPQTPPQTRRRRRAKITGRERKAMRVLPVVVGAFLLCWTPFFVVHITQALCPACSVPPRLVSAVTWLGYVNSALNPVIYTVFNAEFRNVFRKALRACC

D(1A) dopamine receptor = D(1A) dopamine receptor (Sus scrofa, UniProt P50130); assay: Displacement of [3H]SCH23390 from porcine striatal membranes D1 receptor by competitive binding assay
D(2) dopamine receptor [1] = biological target: T2, D(2) dopamine receptor (Homo sapiens, UniProt P14416); assay: Displacement of [3H]spiperone from human D2long receptor stably expressed in CHO cell membranes by competitive binding assay
D(3) dopamine receptor = D(3) dopamine receptor (Homo sapiens, UniProt P35462); assay: Displacement of [3H]spiperone from human D3 receptor stably expressed in CHO cell membranes by competitive binding assay
D(2) dopamine receptor [2] = biological target: T2, D(2) dopamine receptor; assay: Displacement of [3H]spiperone from human D2short receptor stably expressed in CHO cell membranes by competitive binding assay
CHO [3] = assay: Selectivity ratio of Ki for human D3 receptor stably expressed in CHO cell membranes to Ki for human D4.4 receptor stably expressed in CHO cell membranes; assay type: cell-based
CHO [4] = assay: Selectivity ratio of Ki for human D4.4 receptor stably expressed in CHO cell membranes to Ki for human D3 receptor stably expressed in CHO cell membranes; assay type: cell-based

T2 sequence (P14416 whole entry): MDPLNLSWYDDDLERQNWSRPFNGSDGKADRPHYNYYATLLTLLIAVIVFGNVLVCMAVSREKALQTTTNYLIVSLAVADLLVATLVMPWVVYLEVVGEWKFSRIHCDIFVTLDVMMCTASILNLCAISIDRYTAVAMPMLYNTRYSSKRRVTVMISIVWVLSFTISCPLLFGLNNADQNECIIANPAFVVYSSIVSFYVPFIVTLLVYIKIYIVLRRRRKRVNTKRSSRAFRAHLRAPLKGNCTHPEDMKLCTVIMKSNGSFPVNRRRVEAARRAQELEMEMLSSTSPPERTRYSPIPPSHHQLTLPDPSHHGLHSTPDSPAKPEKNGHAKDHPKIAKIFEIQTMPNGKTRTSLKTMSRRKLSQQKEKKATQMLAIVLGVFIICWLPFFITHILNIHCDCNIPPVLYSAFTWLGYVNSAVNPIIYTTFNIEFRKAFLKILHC
Sequence of D(3) dopamine receptor (P35462 whole entry): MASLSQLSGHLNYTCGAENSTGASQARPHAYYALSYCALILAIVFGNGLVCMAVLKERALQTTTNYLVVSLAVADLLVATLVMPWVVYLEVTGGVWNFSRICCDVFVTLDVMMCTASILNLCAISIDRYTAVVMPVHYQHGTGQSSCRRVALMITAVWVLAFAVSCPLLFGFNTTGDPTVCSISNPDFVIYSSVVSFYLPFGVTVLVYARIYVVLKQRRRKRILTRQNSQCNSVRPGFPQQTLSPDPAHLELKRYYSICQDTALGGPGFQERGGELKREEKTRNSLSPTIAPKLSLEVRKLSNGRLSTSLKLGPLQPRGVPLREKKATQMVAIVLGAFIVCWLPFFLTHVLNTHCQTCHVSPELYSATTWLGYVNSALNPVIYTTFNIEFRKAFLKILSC
Sequence of D(1A) dopamine receptor (P50130 whole entry): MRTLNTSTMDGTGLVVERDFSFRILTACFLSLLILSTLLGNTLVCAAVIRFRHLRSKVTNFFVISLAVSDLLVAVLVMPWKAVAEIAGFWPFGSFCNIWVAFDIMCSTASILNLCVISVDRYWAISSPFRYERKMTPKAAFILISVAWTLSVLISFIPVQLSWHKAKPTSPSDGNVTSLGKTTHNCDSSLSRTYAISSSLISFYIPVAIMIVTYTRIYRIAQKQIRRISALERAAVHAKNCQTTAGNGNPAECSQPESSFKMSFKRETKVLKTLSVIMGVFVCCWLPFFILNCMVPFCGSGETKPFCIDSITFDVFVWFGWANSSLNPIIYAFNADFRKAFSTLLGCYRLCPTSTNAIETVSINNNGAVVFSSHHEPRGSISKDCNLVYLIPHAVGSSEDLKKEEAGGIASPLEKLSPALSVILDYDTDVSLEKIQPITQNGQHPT

Row | Compound | Ki (D(4) dopamine receptor) [µM] | Ki (D(1A) dopamine receptor) [µM] | Ki (D(2) dopamine receptor [1]) [µM] | Ki (D(3) dopamine receptor) [µM] | Ki (D(2) dopamine receptor [2]) [µM] | Ratio Ki (CHO [3]) | Ratio Ki (CHO [4])
1 | O=C(CCc1cn(CCCCCCCCCCn2cc(CCC(=O)OC3(c4ccc(Cl)cc4)CCN(CCCC(=O)c4ccc(F)cc4)CC3)nn2)nn1)OC1(c2ccc(Cl)cc2)CCN(CCCC(=O)c2ccc(F)cc2)CC1 | 0.089 | 0.086 | 0.0049 | 0.0059 | 0.0054 | – | –
2 | O=C(CCCCCCCCCCC(=O)OC1(c2ccc(Cl)cc2)CCN(CCCC(=O)c2ccc(F)cc2)CC1)OC1(c2ccc(Cl)cc2)CCN(CCCC(=O)c2ccc(F)cc2)CC1 | 2.2 | 1.1 | 0.066 | 0.21 | 0.046 | – | –
3 | O=C(CCCCCCCCC(=O)OC1(c2ccc(Cl)cc2)CCN(CCCC(=O)c2ccc(F)cc2)CC1)OC1(c2ccc(Cl)cc2)CCN(CCCC(=O)c2ccc(F)cc2)CC1 | 0.49 | 1.4 | 0.015 | 0.039 | 0.031 | – | –
4 | O=C(CCCCCCC(=O)OC1(c2ccc(Cl)cc2)CCN(CCCC(=O)c2ccc(F)cc2)CC1)OC1(c2ccc(Cl)cc2)CCN(CCCC(=O)c2ccc(F)cc2)CC1 | 0.3 | 0.92 | 0.0025 | 0.0064 | 0.0029 | – | –
5 | O=C(CCCCCC(=O)OC1(c2ccc(Cl)cc2)CCN(CCCC(=O)c2ccc(F)cc2)CC1)OC1(c2ccc(Cl)cc2)CCN(CCCC(=O)c2ccc(F)cc2)CC1 | 0.36 | 0.28 | 0.0033 | 0.011 | 0.0026 | – | –
6 | CCC(=O)OC1(c2ccc(Cl)cc2)CCN(CCCC(=O)c2ccc(F)cc2)CC1 | 0.0025 | 0.072 | 0.0039 | 0.041 | 0.0016 | 8 | –
7 | O=C(CCCCC(=O)OC1(c2ccc(Cl)cc2)CCN(CCCC(=O)c2ccc(F)cc2)CC1)OC1(c2ccc(Cl)cc2)CCN(CCCC(=O)c2ccc(F)cc2)CC1 | 0.041 | 0.22 | 0.003 | 0.011 | 0.0023 | – | 2
8 | O=C(CCCCCCCCCCCCCCC(=O)OC1(c2ccc(Cl)cc2)CCN(CCCC(=O)c2ccc(F)cc2)CC1)OC1(c2ccc(Cl)cc2)CCN(CCCC(=O)c2ccc(F)cc2)CC1 | 1.4 | 6.8 | 0.14 | 0.22 | 0.28 | – | –
9 | CN(C)CCC(=O)OC1(c2ccc(Cl)cc2)CCN(CCCC(=O)c2ccc(F)cc2)CC1 | 0.0087 | 0.2 | 0.0019 | 0.03 | 0.0018 | – | –
10 | CCCCCCCCCC(=O)OC1(c2ccc(Cl)cc2)CCN(CCCC(=O)c2ccc(F)cc2)CC1 [HALOPERIDOL DECANOATE] | 0.0058 | 0.14 | 0.0018 | 0.0035 | 0.00046 | – | –
11 | O=C(CCN1CCN(CCC(=O)OC2(c3ccc(Cl)cc3)CCN(CCCC(=O)c3ccc(F)cc3)CC2)CC1)OC1(c2ccc(Cl)cc2)CCN(CCCC(=O)c2ccc(F)cc2)CC1 | 0.033 | 0.36 | 0.0025 | 0.0095 | 0.0011 | – | –
12 | O=C(CCC(=O)OC1(c2ccc(Cl)cc2)CCN(CCCC(=O)c2ccc(F)cc2)CC1)OC1(c2ccc(Cl)cc2)CCN(CCCC(=O)c2ccc(F)cc2)CC1 | 0.024 | 0.13 | 0.0067 | 0.014 | 0.0054 | – | 2
13 | O=C(CCc1cn(CCCCCCCCn2cc(CCC(=O)OC3(c4ccc(Cl)cc4)CCN(CCCC(=O)c4ccc(F)cc4)CC3)nn2)nn1)OC1(c2ccc(Cl)cc2)CCN(CCCC(=O)c2ccc(F)cc2)CC1 | 0.019 | 0.049 | 0.0013 | 0.0018 | 0.0016 | – | –
14 | O=C(CCc1cn(CCOCCOCCOCCn2cc(CCC(=O)OC3(c4ccc(Cl)cc4)CCN(CCCC(=O)c4ccc(F)cc4)CC3)nn2)nn1)OC1(c2ccc(Cl)cc2)CCN(CCCC(=O)c2ccc(F)cc2)CC1 | 0.041 | 0.12 | 0.001 | 0.0098 | 0.003 | – | –
15 | Cc1ccc(C(=O)OC2(c3ccc(Cl)cc3)CCN(CCCC(=O)c3ccc(F)cc3)CC2)cc1 | 0.13 | 0.55 | 0.056 | 0.27 | 0.047 | – | –
16 | O=C(CCc1cn(CCOCCOCCOCCOCCn2cc(CCC(=O)OC3(c4ccc(Cl)cc4)CCN(CCCC(=O)c4ccc(F)cc4)CC3)nn2)nn1)OC1(c2ccc(Cl)cc2)CCN(CCCC(=O)c2ccc(F)cc2)CC1 | 0.046 | 0.15 | 0.0016 | 0.019 | 0.0038 | – | –
17 | O=C(CCCCCCCCCCCCCCCCC(=O)OC1(c2ccc(Cl)cc2)CCN(CCCC(=O)c2ccc(F)cc2)CC1)OC1(c2ccc(Cl)cc2)CCN(CCCC(=O)c2ccc(F)cc2)CC1 | 0.57 | 0.93 | 0.16 | 0.38 | 0.15 | – | –
18 | O=C(CCCC(=O)OC1(c2ccc(Cl)cc2)CCN(CCCC(=O)c2ccc(F)cc2)CC1)OC1(c2ccc(Cl)cc2)CCN(CCCC(=O)c2ccc(F)cc2)CC1 | 0.033 | 0.22 | 0.012 | 0.031 | 0.012 | – | –
19 | O=C(CCC(=O)N1CCC(O)(c2ccc(Cl)cc2)CC1)c1ccc(F)cc1 | 18 | 19 | 0.86 | 1.7 | 0.47 | – | –
20 | O=C(CCCCCCCCCCCCCCCCCCCCC(=O)OC1(c2ccc(Cl)cc2)CCN(CCCC(=O)c2ccc(F)cc2)CC1)OC1(c2ccc(Cl)cc2)CCN(CCCC(=O)c2ccc(F)cc2)CC1 | 0.85 | 1.5 | 0.31 | 0.5 | 0.28 | – | –
21 | O=C(CCCCCCCC(=O)OC1(c2ccc(Cl)cc2)CCN(CCCC(=O)c2ccc(F)cc2)CC1)OC1(c2ccc(Cl)cc2)CCN(CCCC(=O)c2ccc(F)cc2)CC1 | 0.52 | 1.2 | 0.0056 | 0.0091 | 0.0065 | – | –
22 | CN(CCC(=O)OC1(c2ccc(Cl)cc2)CCN(CCCC(=O)c2ccc(F)cc2)CC1)CCN(C)CCC(=O)OC1(c2ccc(Cl)cc2)CCN(CCCC(=O)c2ccc(F)cc2)CC1 | 0.029 | 0.26 | 0.0032 | 0.047 | 0.0022 | – | –
23 | O=C(CCCCCCCCCCCCC(=O)OC1(c2ccc(Cl)cc2)CCN(CCCC(=O)c2ccc(F)cc2)CC1)OC1(c2ccc(Cl)cc2)CCN(CCCC(=O)c2ccc(F)cc2)CC1 | 0.49 | 1.4 | 0.12 | 0.16 | 0.062 | – | –
24 | O=C(CCCCCCCCCCCCCCCCCCC(=O)OC1(c2ccc(Cl)cc2)CCN(CCCC(=O)c2ccc(F)cc2)CC1)OC1(c2ccc(Cl)cc2)CCN(CCCC(=O)c2ccc(F)cc2)CC1 | 0.16 | 1.4 | 0.025 | 0.082 | 0.027 | – | –
25 | CC(=O)OC1(c2ccc(Cl)cc2)CCN(CCCC(=O)c2ccc(F)cc2)CC1 | 0.0093 | 0.059 | 0.0045 | 0.056 | 0.0045 | 8 | –
